Literature values in US6458821B1, “N-substituted azabicycloheptane derivatives, production and use thereof” (Abbott Laboratories, priority 1998, dated 2002).

What was measured:
D2 = D2 (Homo sapiens, UniProt P14416); conditions: D4/5-HT2A versus D2; background statement
serotonin 2A receptor = serotonin 2A receptor (Homo sapiens, UniProt P28223); conditions: background statement on substance A
dopamine D4 receptor = target: T1, dopamine D4 receptor (Homo sapiens, UniProt P21917); conditions: background statement on substance A
T1 sequence (P21917 1-419): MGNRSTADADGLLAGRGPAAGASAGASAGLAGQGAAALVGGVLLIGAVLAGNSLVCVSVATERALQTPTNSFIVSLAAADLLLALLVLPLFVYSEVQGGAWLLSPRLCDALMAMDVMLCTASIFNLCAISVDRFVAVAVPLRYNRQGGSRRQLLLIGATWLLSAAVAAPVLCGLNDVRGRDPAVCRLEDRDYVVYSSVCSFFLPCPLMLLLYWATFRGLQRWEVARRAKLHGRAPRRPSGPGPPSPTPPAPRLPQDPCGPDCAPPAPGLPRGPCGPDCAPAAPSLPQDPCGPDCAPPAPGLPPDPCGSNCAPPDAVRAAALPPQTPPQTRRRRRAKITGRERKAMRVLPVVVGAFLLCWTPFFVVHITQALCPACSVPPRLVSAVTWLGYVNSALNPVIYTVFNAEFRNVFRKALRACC

[1] = limits the dosage of substance A

Chain of D2 (P14416 whole entry): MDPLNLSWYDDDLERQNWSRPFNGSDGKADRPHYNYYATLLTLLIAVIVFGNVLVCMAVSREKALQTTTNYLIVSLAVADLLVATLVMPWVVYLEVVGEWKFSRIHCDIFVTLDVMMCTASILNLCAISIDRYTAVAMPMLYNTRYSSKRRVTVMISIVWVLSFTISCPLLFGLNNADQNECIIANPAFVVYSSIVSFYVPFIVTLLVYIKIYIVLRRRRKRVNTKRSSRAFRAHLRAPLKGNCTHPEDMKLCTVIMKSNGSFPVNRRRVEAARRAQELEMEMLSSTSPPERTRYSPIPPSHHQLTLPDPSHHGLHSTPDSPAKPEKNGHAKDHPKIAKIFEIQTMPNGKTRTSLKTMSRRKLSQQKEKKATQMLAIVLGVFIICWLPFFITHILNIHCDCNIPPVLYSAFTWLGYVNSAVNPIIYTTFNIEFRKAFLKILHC
Chain of serotonin 2A receptor (P28223 whole entry): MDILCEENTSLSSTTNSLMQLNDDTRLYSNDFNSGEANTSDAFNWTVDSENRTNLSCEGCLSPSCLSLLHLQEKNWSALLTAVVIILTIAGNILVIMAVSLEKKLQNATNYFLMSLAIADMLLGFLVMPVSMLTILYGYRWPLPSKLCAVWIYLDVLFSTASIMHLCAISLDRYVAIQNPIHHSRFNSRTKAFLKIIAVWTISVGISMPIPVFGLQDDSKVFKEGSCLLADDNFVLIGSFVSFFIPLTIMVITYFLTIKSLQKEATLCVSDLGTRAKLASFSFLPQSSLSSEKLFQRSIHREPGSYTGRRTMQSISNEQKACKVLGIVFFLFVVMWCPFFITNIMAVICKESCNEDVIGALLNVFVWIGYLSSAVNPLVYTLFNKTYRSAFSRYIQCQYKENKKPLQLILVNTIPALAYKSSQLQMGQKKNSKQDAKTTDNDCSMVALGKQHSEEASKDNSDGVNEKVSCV

## O=c1[nH]c2ccccc2c(=O)n1CCN1C[C@H]2C[C@H](c3ccc(F)cc3)[C@H]2C1 [substance A, (+)-(1S,5R,6S)-exo-3-[2-[6-(4-fluorophenyl)-3-azabicyclo[3.2.0]-heptan-3-yl]ethyl]-1H,3H-quinazoline-2,4-dione]
D2
  selectivity versus D2: good selectivity
Serotonin 2A receptor
  5-HT2A affinity: high
Dopamine D4 receptor
  D4 affinity: high
[1]
  prolongations in the QT interval in the ECG: prolongations which occur in the QT interval
